Source: ChEMBL document CHEMBL1130519, “BN 80245: An E-ring modified camptothecin with potent antiproliferative and topoisomerase I inhibitory activities” (Bioorg Med Chem Lett, 1997)

Test system: L1210
Assay: Compound was evaluated for cytotoxic activity on L1210 murine leukemia cells
Type: functional, cell-based
Settings: Mus musculus

Structure (SMILES)	IC50 [nM]
CCC1(O)CC(=O)OCc2c1cc1n(c2=O)Cc2cc3ccccc3nc2-1 (stereo not drawn)	16.2
CC[C@@]1(O)C(=O)OCc2c1cc1n(c2=O)Cc2cc3ccccc3nc2-1 [CAMPTOTHECIN]	126
CC[C@@]1(O)C(=O)OCc2c1cc1n(c2=O)Cc2cc3c(CN(C)C)c(O)ccc3nc2-1 [TOPOTECAN]	601
